Details: 313.14 K, Liquid, Vibrating tube method

CCCCCCCCCC [decane]
Details | mass density [kg/m3]
19655 kPa | 730.3
19686 kPa | 730.3
19711 kPa | 730.4
19727 kPa | 730.4
19745 kPa | 730.4
19773 kPa | 730.4
19804 kPa | 730.3
19823 kPa | 730.5
19848 kPa | 730.4
19867 kPa | 730.5
19889 kPa | 730.5
19908 kPa | 730.5
19940 kPa | 730.5
19959 kPa | 730.6
19985 kPa | 730.5
20008 kPa | 730.6
20028 kPa | 730.6
20055 kPa | 730.6
20074 kPa | 730.5
20097 kPa | 730.6
20126 kPa | 730.4
20150 kPa | 730.6
20172 kPa | 730.7
20205 kPa | 730.7
20221 kPa | 730.7
20238 kPa | 730.8
20257 kPa | 730.7
20287 kPa | 730.8
20308 kPa | 730.7
20329 kPa | 730.8
20385 kPa | 730.8
20430 kPa | 730.9
20460 kPa | 730.9
20488 kPa | 730.9
20511 kPa | 731
20535 kPa | 730.9
20586 kPa | 731
20611 kPa | 731
20632 kPa | 730.9
20663 kPa | 731.1
20687 kPa | 731.1
20708 kPa | 731
20732 kPa | 731.2
20767 kPa | 731.1
20791 kPa | 731.2
20819 kPa | 731.1
20850 kPa | 731.2
20872 kPa | 731.1
20900 kPa | 731.1
20932 kPa | 731.4
21014 kPa | 731.3
21046 kPa | 731.3
21075 kPa | 731.3
21144 kPa | 731.3
21163 kPa | 731.4
21200 kPa | 731.3
21226 kPa | 731.6
21308 kPa | 731.5
21387 kPa | 731.5
21414 kPa | 731.7
21440 kPa | 731.6
21471 kPa | 731.6
21495 kPa | 731.7
21516 kPa | 731.6
21536 kPa | 731.6
21563 kPa | 731.7
21597 kPa | 731.7
21621 kPa | 731.6
21642 kPa | 731.8
21663 kPa | 731.8
21686 kPa | 731.8
21728 kPa | 731.9
21752 kPa | 731.8
21771 kPa | 731.8
21827 kPa | 731.8
21852 kPa | 731.9
21883 kPa | 731.9
21911 kPa | 731.9
21932 kPa | 731.9
21953 kPa | 731.9
21985 kPa | 731.9
22006 kPa | 731.9
22034 kPa | 732
22060 kPa | 732.1
22083 kPa | 732.1
22115 kPa | 732
22140 kPa | 732.1
22165 kPa | 732
22198 kPa | 732.2
22216 kPa | 732
22245 kPa | 732.2
22263 kPa | 732.1
22292 kPa | 732.2
22321 kPa | 732.2
22348 kPa | 732.2
22374 kPa | 732.2
22400 kPa | 732.2
22426 kPa | 732.3
22522 kPa | 732.3
22577 kPa | 732.3
22645 kPa | 732.5
22672 kPa | 732.5
22699 kPa | 732.4
22729 kPa | 732.6
22756 kPa | 732.5
22794 kPa | 732.6
22828 kPa | 732.6
22855 kPa | 732.6
22882 kPa | 732.5
22904 kPa | 732.6
22939 kPa | 732.7
23398 kPa | 733
23435 kPa | 732.9
23468 kPa | 732.9
23492 kPa | 733
23529 kPa | 733
23554 kPa | 733
23579 kPa | 733.1
23611 kPa | 733.2
23636 kPa | 733
23669 kPa | 733.1
23699 kPa | 733.2
23732 kPa | 733.2
23758 kPa | 733.2
23792 kPa | 733.3
23821 kPa | 733.4
23851 kPa | 733.2
23873 kPa | 733.2
23894 kPa | 733.3
23923 kPa | 733.4
23954 kPa | 733.4
23992 kPa | 733.4
24027 kPa | 733.4
24054 kPa | 733.4
24081 kPa | 733.5
24116 kPa | 733.5
24142 kPa | 733.4

Reference: the NIST ThermoML archive (doi:10.1021/je800110r)
